According to ChEMBL document CHEMBL3507680, “University of Dundee, Gates Library screen for HepG2 cell viability”:

Experiment: Human HepG2 cell viability assay in 384 well format
Assay type: toxicity, cell-based
Design: dose 125 nL, time 70.5 hour; concentration not given beside the values
Details: HepG2 cells, read-out: Inhibition

| Compound | cytotoxicity at 70.5 h [%] |
| --- | --- |
| COc1cc(NCC(=O)NC(C)(C#N)C(C)C)cc(OC)c1OC (centres undefined) | -0.783 |
| COc1ncccc1NC(=O)c1[nH]nc(C(C)C)c1Br | -8.6 |
| Cn1ccnc1CN1CCCN(C(=O)C2(C#N)CCCCC2)CC1 | 1.4 |
| CN(C)CCOc1ccccc1N1CCN(C(=O)c2ccoc2)CC1 | 2.2 |
| CC(NC(=O)N1CCS(=O)(=O)CC1)c1ccc(F)cc1Cl (centres undefined) | -1.2 |
| CC(CNC(=O)c1cccc(-n2cccn2)n1)Cn1ccnc1 (centres undefined) | -2.98 |
| CC(C)c1cc(C(=O)N(c2ccc(F)cn2)C2CCOCC2)nn1C | 3.21 |
| O=C(c1ccncc1F)N1CCOC(c2cccc(O)c2)C1 (centres undefined) | 2.22 |
| COc1ccc(-c2nc(CSC3CCCCNC3=O)co2)cc1 (centres undefined) | -3.03 |
| CCn1ccnc1CN1CCCN(C(=O)C2(C#N)CCCCC2)CC1 | -3.94 |
| O=C(Cc1cccs1)N1CCOC(c2cccc(O)c2)C1 (centres undefined) | 0.631 |
| COc1ccc(C)cc1C1(CNc2cn[nH]c(=O)c2Cl)CCOCC1 | -5.9 |
| Cc1ccc(O)c(C(=O)NCCCS(=O)(=O)Cc2ccccc2)c1 | -11.4 |
| NC(=O)CCOc1ccc(NC(=O)c2ccccc2OC(F)F)cc1 | 3.32 |
| CCNC(=O)Nc1cccc(F)c1C(=O)NC1CCCC1 | -6.92 |
| O=C(CCc1cc(Br)cs1)NCCCn1ccnc1 | 5.85 |
| CCn1nnnc1-c1cccc(NC(N)=O)c1 | -5.79 |
| CC1CS(=O)(=O)CCN1Cc1ccccc1OCC(F)(F)F (centres undefined) | -6.75 |
| O=c1[nH]c(=O)n(CC(O)c2ccccc2Cl)cc1Cl (centres undefined) | -5.98 |
| CC(C)NC(=O)CCNC(=O)CCc1cc(Br)cs1 | -6.47 |

| Compound | cytotoxicity at 70.5 h [%] |
| --- | --- |
| CC(C)(C)c1ccc2c(c1)CCN2C(=O)c1nc(=O)[nH][nH]1 | 0.34 |
| Cc1cncc(NCc2ccccc2N2CCOCC2)c1 | 3.08 |
| O=S(=O)(c1ccccc1)N1CCCC(Cn2cncn2)C1 (centres undefined) | -4.76 |
| CCC(C)C(=O)NCc1ccn(-c2ccc(F)cc2)n1 (centres undefined) | 8.14 |
| O=C(Cc1ccc(F)cc1)NCc1ccc(C(=O)O)o1 | -2.52 |
| O=C(C1CCOc2ccccc21)N1CCOc2ccc(F)cc21 (centres undefined) | -9.88 |
| CC(C)n1nc2c(cc1=O)CN(CC1CCCCO1)CC2 (centres undefined) | -5.1 |
| CCC(C(=O)NCc1ccn(-c2ccc(F)cc2)n1)N1CCCC1=O (centres undefined) | 5.43 |
| CCN(Cc1ccoc1)C(=O)c1ccncc1O | -9.48 |
| COc1ccc(NC(=O)c2cccc(OC)c2OC)cc1 | -3.77 |
| CN(CC(=O)NCC(F)(F)F)Cc1cccc2c1OCCO2 | 14.8 |
| CC(OCC1CC1)C(=O)Nc1nccn1Cc1ccccc1 (centres undefined) | -14.6 |
| CN(Cc1cc(Br)c2c(c1)OCO2)Cc1cscn1 | -14.1 |
| COc1cc(F)ccc1NC(=O)NC(C)C(=O)NC(C)(C)C (centres undefined) | -4.93 |
| Cc1ccc(C)c(CC(=O)NC2CCS(=O)(=O)CC2)c1 | -10.2 |
| Cc1noc(C)c1C(C)NC(=O)N1CCCN(C(=O)c2ccsc2)CC1 (centres undefined) | -13.8 |
| CC(C)Nc1ncccc1C(=O)NC1CC(=O)N(CC(F)(F)F)C1 (centres undefined) | -2.71 |
| CCCNC(=O)CCNC(=O)N1CCC(=Cc2ccccc2)CC1 | -4.61 |
| NC(=O)C1CCCN1CCCc1ccc(C(F)(F)F)cc1 (centres undefined) | -5.39 |
| CC(NC(=O)Nc1cccnc1N1CCOCC1)c1ccccn1 (centres undefined) | -8.36 |

| Compound | cytotoxicity at 70.5 h [%] |
| --- | --- |
| CNC(=O)N1CCC(=Cc2ccccc2)CC1 | -12 |
| NC(=O)C1CCN(CCCc2ccc(C(F)(F)F)cc2)CC1 | 3.34 |
| Cc1ccc(CNC(=O)NC2CCC(O)CC2)c(N2CCCC2)c1 (centres undefined) | -10.5 |
| Cc1ccc(CNC(=O)NCC(=O)NC(C)(C)C)c(N2CCCC2)c1 | -16.8 |
| N#CC1(NC(=O)c2nccc3ccccc23)CCSCC1 | -9.79 |
| CSC(C)C(=O)NS(=O)(=O)CCc1ccccc1 (centres undefined) | -2.58 |
| CC(C)CC(CCO)CNC(=O)N1CCOC2(CCCC2)C1 (centres undefined) | -1.95 |
| CCc1noc(C(C)N2CCN(CCc3ccncc3)CC2)n1 (centres undefined) | -5.36 |
| CCn1ccnc1CN1CCN(C(C)C(=O)NCc2ccco2)CC1 (centres undefined) | 16.6 |
| CC(C)n1cnnc1CNC(=O)c1cnc2ccccc2n1 | -3.77 |
| OC1(CN2CCOC(Cn3cncn3)C2)CCCCC1 (centres undefined) | 2.37 |
| O=C1CCN(C(=O)NCc2cccc(Oc3ccccc3)c2)CCN1 | -6.34 |
| CC(C)(C)C1CCC(O)(CNC(=O)CCS(C)(=O)=O)CC1 (centres undefined) | -4.23 |
| O=C1CCN(C(=O)NCc2ccccc2Oc2ccccc2)CCN1 | 2.87 |
| CC(=O)NCCC(=O)NC(C)c1sc(-c2ccccc2F)nc1C (centres undefined) | -5.17 |
| Cn1c(=O)n(C)c2cc(NS(=O)(=O)Cc3cccc(F)c3)ccc21 | -6.9 |
| N#Cc1ccc(CN2CCN(c3cncc(Cl)n3)CC2=O)cc1 | -4.86 |
| CCOc1ccc(Cl)c(C(=O)N2CCCC(c3cc(C)[nH]n3)C2)n1 (centres undefined) | -2.21 |
| O=C(c1sccc1-n1cnnn1)N1CCC2(CCCCC2)CC1 | 11.8 |
